Measurements from ChEMBL document CHEMBL4311943, “3-[(1S,2S,3R)-2,3-Difluoro-1-hydroxy-7-methylsulfonylindan-4-yl]oxy-5-fluorobenzonitrile (PT2977), a Hypoxia-Inducible Factor 2α (HIF-2α) Inhibitor for the Treatment of Clear Cell Renal Cell Carcinoma” (J Med Chem, 2019).
The source made the active and inactive calls. The calls are words filed in the database; no cut-off is given here.

Assays:
[1] = target: Cytochrome P450 2B6 (Homo sapiens, UniProt P20813); assay: Inhibition of CYP2B6 in human liver microsomes up to 50 uM using bupropion as substrate measured after 10 mins in presence of NADPH by LC-MS/MS analysis; assay type: ADME
[2] = target: Cytochrome P450 2C9 (Homo sapiens, UniProt P11712); assay: Inhibition of CYP2C9 in human liver microsomes up to 50 uM using diclofenac as substrate measured after 10 mins in presence of NADPH by LC-MS/MS analysis; assay type: ADME
Sequence of Cytochrome P450 2C9 (P11712 whole entry): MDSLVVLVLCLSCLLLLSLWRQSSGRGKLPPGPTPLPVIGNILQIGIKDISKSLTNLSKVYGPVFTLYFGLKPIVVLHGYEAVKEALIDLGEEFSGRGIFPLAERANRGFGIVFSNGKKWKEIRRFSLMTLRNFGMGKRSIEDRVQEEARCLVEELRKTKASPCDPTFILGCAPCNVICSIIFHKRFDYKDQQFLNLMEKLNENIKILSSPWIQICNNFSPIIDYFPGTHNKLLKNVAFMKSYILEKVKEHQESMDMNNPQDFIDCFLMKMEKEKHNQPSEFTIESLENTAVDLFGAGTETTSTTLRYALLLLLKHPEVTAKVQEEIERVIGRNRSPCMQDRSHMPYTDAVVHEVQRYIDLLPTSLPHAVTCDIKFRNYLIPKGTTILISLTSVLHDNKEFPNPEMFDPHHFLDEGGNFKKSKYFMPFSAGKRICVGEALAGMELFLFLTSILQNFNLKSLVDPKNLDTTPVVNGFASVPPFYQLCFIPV

[3] = target: T1, Cytochrome P450 3A4 (Homo sapiens, UniProt P08684); assay: Inhibition of CYP3A4 in human liver microsomes up to 50 uM using midazolam as substrate measured after 10 mins in presence of NADPH by LC-MS/MS analysis; assay type: ADME
T1 sequence (P08684 whole entry): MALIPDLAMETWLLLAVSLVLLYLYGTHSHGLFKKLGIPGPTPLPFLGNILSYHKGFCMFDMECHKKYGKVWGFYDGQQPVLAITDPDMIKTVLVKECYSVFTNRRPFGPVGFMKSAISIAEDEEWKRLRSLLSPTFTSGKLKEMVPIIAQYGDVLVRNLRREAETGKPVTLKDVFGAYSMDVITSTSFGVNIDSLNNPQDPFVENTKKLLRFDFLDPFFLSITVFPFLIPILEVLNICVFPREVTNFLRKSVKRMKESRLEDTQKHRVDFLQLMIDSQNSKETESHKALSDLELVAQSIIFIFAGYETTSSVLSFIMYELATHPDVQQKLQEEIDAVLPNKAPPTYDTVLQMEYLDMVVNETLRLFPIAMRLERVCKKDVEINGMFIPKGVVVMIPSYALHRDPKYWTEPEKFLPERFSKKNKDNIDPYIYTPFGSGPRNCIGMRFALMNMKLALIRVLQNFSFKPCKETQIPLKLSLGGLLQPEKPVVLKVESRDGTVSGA

[4] = target: T1, Cytochrome P450 3A4; assay: Inhibition of CYP3A4 in human liver microsomes up to 50 uM using testosterone as substrate measured after 10 mins in presence of NADPH by LC-MS/MS analysis; assay type: ADME
[5] = target: Voltage-gated inwardly rectifying potassium channel KCNH2 (Homo sapiens, UniProt Q12809); assay: Inhibition of human ERG expressed in mammalian expression system by Q-patch clamp electrophysiology method
[6] = Half life in Sprague-Dawley rat at 1 mg/kg, iv by UPLC-MS analysis; assay type: ADME, organism-based; details: in vivo
[7] = Half life in Beagle dog at 1 mg/kg, iv by UPLC-MS analysis; assay type: ADME, organism-based, Canis lupus familiaris; details: in vivo
[8] = Half life in monkey at 1 mg/kg, iv by UPLC-MS analysis; assay type: ADME, organism-based, Macaca mulatta; details: rhesus monkey, in vivo
[9] = Dose normalized AUClast in CD-1 mouse at 10 mg/kg, po administered via gavage by UPLC-MS analysis; assay type: ADME, organism-based; details: in vivo
[10] = Dose normalized AUClast in Sprague-Dawley rat at 10 mg/kg, po administered via gavage by UPLC-MS analysis; assay type: ADME, organism-based; details: in vivo
[11] = tested on: Mus musculus; assay: In vivo inhibition of HIF-2alpha in SCID Beige mouse xenografted with human 786-O cells assessed as reduction in cyclin D1 mRNA expression administered twice daily via oral gavage for 3 days measured 12 hrs post-last dose by qRT-PCR analysis; assay type: functional, organism-based
[12] = Drug level in plasma of SCID Beige mouse xenografted with human 786-O cells at 3 mg/kg, po administered twice daily via gavage for 3 days measured 12 hrs post-last dose; assay type: ADME, organism-based
[13] = Half life in patient with advanced solid tumor at 80 mg, po administered once daily measured on day 15; assay type: ADME, organism-based; details: human, in vivo
[14] = Cmax in patient with advanced solid tumor at 240 mg, po administered once daily measured on day 15; assay type: ADME, organism-based; set-up: dose 240 mg, route oral; details: human, in vivo
[15] = AUClast in patient with advanced solid tumor at 80 mg, po administered once daily measured on day 15; assay type: ADME, organism-based; set-up: dose 80 mg, route oral, time 0 - last; details: human, in vivo
[16] = AUClast in patient with advanced solid tumor at 160 mg, po administered once daily measured on day 15; assay type: ADME, organism-based; set-up: dose 160 mg, time 0 - last, route oral; details: human, in vivo
[17] = Plasma concentration in patient with advanced solid tumor at 160 mg, po administered once daily measured on day 15 after 24 hrs; assay type: ADME, organism-based; details: human
[18] = target: Alpha-1A adrenergic receptor (Homo sapiens) (UniProt P35348); assay: Activity at human alpha1A receptor at 10 uM
[19] = target: Alpha-2A adrenergic receptor (Homo sapiens) (UniProt P08913); assay: Activity at human alpha2A receptor at 10 uM
[20] = target: CDK2/Cyclin A2 (Homo sapiens) (UniProt P24941+P20248); assay: Activity at human CDK2/cyclinA at 10 uM; assay type: protein-complex assay
[21] = target: Calcium/calmodulin-dependent protein kinase type II subunit delta (Homo sapiens) (UniProt Q13557); assay: Activity at human CAMK2D at 10 uM
[22] = target: Calcium/calmodulin-dependent protein kinase type IV (Homo sapiens) (UniProt Q16566); assay: Activity at human CAMK4 at 10 uM
[23] = target: Calcium/calmodulin-dependent protein kinase type II subunit beta (Homo sapiens) (UniProt Q13554); assay: Activity at human CAMK2B at 10 uM
[24] = target: Tyrosine-protein kinase ABL1 (Homo sapiens) (UniProt P00519); assay: Activity at human Abl at 10 uM
[25] = target: Vasoactive intestinal polypeptide receptor 1 (Homo sapiens) (UniProt P32241); assay: Activity at human VPAC1 at 10 uM
Sequence of Vasoactive intestinal polypeptide receptor 1 (Homo sapiens) (P32241 whole entry): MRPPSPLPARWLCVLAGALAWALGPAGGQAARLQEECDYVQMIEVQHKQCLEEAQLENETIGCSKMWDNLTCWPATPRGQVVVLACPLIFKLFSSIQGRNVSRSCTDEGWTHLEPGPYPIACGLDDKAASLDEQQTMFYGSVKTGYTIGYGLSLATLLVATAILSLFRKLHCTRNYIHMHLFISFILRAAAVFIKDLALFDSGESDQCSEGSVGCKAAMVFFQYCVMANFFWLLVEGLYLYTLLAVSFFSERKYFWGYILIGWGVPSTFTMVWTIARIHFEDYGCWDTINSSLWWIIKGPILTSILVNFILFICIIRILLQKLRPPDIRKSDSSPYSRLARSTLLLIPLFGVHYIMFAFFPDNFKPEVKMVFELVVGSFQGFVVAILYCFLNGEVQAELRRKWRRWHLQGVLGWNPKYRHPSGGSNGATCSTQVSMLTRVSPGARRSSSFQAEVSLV

[26] = target: Prostaglandin D2 receptor (Homo sapiens) (UniProt Q13258); assay: Activity at human Prostanoid DP receptor at 10 uM
[27] = target: Platelet-activating factor receptor (Homo sapiens) (UniProt P25105); assay: Activity at human PAF receptor at 10 uM
[28] = target: Orexin/Hypocretin receptor type 1 (Homo sapiens) (UniProt O43613); assay: Activity at human OX1 receptor at 10 uM
Sequence of Orexin/Hypocretin receptor type 1 (Homo sapiens) (O43613 whole entry): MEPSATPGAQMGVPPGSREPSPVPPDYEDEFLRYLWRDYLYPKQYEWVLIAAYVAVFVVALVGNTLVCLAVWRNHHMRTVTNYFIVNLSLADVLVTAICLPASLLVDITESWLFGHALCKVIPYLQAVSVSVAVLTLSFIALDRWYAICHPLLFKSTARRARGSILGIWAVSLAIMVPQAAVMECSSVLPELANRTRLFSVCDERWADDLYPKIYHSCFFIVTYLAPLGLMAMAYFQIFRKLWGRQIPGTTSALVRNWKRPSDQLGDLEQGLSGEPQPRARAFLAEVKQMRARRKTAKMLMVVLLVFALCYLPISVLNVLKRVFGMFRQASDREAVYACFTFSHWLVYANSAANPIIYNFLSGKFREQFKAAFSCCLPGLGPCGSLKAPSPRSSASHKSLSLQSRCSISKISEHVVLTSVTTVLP

[29] = target: Oxytocin receptor (Homo sapiens) (UniProt P30559); assay: Activity at human oxytocin receptor at 10 uM
[30] = target: Lysophosphatidic acid receptor 1 (Homo sapiens) (UniProt Q92633); assay: Activity at human LPA1 receptor at 10 uM
[31] = target: Leukotriene B4 receptor 1 (Homo sapiens) (UniProt Q15722); assay: Activity at human BLT1 receptor at 10 uM
Sequence of Leukotriene B4 receptor 1 (Homo sapiens) (Q15722 whole entry): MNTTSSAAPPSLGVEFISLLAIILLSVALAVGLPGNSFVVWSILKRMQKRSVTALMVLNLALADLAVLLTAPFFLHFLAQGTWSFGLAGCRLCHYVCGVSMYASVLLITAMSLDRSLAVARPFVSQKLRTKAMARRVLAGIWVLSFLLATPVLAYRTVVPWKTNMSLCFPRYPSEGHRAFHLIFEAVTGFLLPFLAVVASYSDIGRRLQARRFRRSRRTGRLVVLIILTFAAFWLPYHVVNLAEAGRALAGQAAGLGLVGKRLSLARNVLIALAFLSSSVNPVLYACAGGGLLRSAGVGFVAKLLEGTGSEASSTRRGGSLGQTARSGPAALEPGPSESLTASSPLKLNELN

[32] = target: Gonadotropin-releasing hormone receptor (Homo sapiens) (UniProt P30968); assay: Activity at human GNRH at 10 uM
[33] = target: Galanin receptor type 1 (Homo sapiens) (UniProt P47211); assay: Activity at human GAL1 receptor at 10 uM
[34] = target: Corticotropin-releasing factor receptor 1 (Homo sapiens) (UniProt P34998); assay: Activity at human CRF1 receptor at 10 uM
Sequence of Corticotropin-releasing factor receptor 1 (Homo sapiens) (P34998 whole entry): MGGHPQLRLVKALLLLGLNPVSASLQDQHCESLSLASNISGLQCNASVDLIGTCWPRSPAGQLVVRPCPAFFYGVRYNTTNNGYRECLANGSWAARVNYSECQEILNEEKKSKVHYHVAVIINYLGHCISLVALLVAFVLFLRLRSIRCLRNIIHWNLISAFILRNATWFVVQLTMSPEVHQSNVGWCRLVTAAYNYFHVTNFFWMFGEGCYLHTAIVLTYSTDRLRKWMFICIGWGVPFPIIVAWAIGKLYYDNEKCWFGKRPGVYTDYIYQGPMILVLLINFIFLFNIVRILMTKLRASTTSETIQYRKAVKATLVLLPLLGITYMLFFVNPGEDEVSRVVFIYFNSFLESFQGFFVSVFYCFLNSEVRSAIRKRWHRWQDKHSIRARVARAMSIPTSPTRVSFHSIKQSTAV

[35] = target: D(1A) dopamine receptor (Homo sapiens) (UniProt P21728); assay: Activity at human D1 receptor at 10 uM
Sequence of D(1A) dopamine receptor (Homo sapiens) (P21728 whole entry): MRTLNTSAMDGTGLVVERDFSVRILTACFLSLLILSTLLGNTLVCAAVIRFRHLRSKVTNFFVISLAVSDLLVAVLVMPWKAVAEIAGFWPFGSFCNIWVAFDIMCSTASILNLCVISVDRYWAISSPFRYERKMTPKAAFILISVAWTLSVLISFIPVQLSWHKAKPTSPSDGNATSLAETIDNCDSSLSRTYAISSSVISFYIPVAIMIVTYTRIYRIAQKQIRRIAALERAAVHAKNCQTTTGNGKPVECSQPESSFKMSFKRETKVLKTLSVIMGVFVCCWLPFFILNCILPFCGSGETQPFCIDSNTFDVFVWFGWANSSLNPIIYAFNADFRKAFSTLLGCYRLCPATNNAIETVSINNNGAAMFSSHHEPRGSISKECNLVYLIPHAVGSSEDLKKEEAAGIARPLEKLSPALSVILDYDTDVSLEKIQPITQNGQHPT

[36] = target: Gastrin/cholecystokinin type B receptor (Homo sapiens) (UniProt P32239); assay: Activity at human CCK2 receptor at 10 uM
[37] = target: B2 bradykinin receptor (Homo sapiens) (UniProt P30411); assay: Activity at human bradykinin B2 receptor at 10 uM
[38] = target: C5a anaphylatoxin chemotactic receptor 1 (Homo sapiens) (UniProt P21730); assay: Activity at human C5a receptor at 10 uM
[39] = target: T2, Cyclin-dependent kinase 5/CDK5 activator 1 (Homo sapiens) (UniProt Q00535+Q15078); assay: Activity at human CDK5/p25 at 10 uM; assay type: protein-complex assay
T2 sequence (Q00535 whole entry): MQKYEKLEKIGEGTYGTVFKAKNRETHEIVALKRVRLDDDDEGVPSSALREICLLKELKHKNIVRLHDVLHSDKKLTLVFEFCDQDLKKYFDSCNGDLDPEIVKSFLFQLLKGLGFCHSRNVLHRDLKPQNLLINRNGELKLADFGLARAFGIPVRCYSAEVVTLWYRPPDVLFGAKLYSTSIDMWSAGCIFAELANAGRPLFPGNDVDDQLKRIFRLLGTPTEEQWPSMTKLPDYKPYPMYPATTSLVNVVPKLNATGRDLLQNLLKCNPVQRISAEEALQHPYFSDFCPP
T2 sequence (Q15078 99-307 partner limits assumed): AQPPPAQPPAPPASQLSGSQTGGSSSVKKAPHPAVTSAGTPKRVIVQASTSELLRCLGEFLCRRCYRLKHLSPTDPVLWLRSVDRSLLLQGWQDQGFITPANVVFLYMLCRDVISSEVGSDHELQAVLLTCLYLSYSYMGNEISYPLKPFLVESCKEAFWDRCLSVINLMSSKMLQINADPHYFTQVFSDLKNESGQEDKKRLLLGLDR

[40] = target: T2, Cyclin-dependent kinase 5/CDK5 activator 1 (Homo sapiens); assay: Activity at human CDK5/p35 at 10 uM; assay type: protein-complex assay
[41] = target: Receptor-type tyrosine-protein kinase FLT3 (Homo sapiens) (UniProt P36888); assay: Activity at human Flt3 at 10 uM
[42] = target: Mitogen-activated protein kinase 1 (Homo sapiens) (UniProt P28482); assay: Activity at human MAPK1 at 10 uM
[43] = target: Protein kinase C eta type (Homo sapiens) (UniProt P24723); assay: Activity at human PKCeta at 10 uM
Sequence of Protein kinase C eta type (Homo sapiens) (P24723 whole entry): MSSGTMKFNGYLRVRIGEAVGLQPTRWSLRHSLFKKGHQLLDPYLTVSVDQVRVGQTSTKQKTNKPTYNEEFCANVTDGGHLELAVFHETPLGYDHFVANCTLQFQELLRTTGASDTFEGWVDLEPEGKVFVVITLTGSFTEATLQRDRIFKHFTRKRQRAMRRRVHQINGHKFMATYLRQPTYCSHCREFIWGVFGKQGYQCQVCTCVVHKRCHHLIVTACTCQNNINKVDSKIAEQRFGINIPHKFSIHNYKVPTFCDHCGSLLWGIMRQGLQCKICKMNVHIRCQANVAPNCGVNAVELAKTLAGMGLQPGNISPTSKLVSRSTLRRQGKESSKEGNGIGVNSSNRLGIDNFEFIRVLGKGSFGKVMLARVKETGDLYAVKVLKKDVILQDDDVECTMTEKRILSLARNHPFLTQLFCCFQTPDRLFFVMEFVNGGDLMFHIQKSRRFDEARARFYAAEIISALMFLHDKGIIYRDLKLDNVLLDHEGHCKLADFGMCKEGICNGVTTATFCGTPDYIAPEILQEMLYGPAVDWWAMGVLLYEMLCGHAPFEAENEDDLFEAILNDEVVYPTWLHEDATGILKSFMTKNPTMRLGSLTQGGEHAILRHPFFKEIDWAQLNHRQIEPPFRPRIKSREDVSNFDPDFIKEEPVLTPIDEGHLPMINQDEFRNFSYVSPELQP

[44] = target: cGMP-dependent protein kinase 1 (Homo sapiens) (UniProt Q13976); assay: Activity at human PKG1alpha at 10 uM
Sequence of cGMP-dependent protein kinase 1 (Homo sapiens) (Q13976 whole entry): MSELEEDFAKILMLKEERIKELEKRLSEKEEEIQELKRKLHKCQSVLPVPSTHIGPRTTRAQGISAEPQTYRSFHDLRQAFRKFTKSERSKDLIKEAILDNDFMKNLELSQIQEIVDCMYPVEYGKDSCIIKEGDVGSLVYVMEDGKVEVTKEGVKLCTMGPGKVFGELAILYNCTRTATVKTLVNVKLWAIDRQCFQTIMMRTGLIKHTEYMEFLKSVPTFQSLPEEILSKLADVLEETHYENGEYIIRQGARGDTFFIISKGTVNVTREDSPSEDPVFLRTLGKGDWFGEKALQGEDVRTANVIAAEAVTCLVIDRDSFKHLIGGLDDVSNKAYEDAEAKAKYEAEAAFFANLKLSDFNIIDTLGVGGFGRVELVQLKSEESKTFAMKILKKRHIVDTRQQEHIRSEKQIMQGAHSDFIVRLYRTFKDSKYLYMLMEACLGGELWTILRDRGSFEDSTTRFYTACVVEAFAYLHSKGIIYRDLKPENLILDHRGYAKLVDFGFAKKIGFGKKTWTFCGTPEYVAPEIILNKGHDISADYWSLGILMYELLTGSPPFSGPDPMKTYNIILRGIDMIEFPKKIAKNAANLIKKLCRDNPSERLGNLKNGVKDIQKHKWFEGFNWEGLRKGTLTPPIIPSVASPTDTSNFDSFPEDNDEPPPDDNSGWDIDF

[45] = target: cGMP-dependent protein kinase 1 (Homo sapiens) (UniProt Q13976); assay: Activity at human PKG1beta at 10 uM

inhibition (INH) [1]: Not Active | inhibition (INH) [2]: Not Active | inhibition (INH) [3]: Not Active | inhibition (INH) [4]: Not Active | half-life [6]: 1.4 h | half-life [7]: 14 h | half-life [8]: 9.2 h | AUClast/dose [9]: 37 µM·h | AUClast/dose [10]: 13 µM·h | concentration at 12 h [12]: 59 ng/mL | half-life [13]: 15.4 h | Cmax [14]: 2700 ng/mL | AUC(0-t) [15]: 17500 ng·h/mL | AUC(0-t) [16]: 21000 ng·h/mL | concentration at 24 h [17]: 490 ng/mL | Activity [18]: inactive | Activity [19]: inactive | Activity [20]: inactive | Activity [21]: inactive | Activity [22]: inactive | Activity [23]: inactive | Activity [24]: inactive | Activity [25]: inactive | Activity [26]: inactive | Activity [27]: inactive | Activity [28]: inactive | Activity [29]: inactive | Activity [30]: inactive | Activity [31]: inactive | Activity [32]: inactive | Activity [33]: inactive | Activity [34]: inactive | Activity [35]: inactive | Activity [36]: inactive | Activity [37]: inactive | Activity [39]: inactive | Activity [40]: inactive | Activity [41]: inactive | Activity [42]: inactive | Activity [43]: inactive | Activity [44]: inactive | Activity [45]: inactive
Compound: CS(=O)(=O)c1ccc(Oc2cc(F)cc(C#N)c2)c2c1[C@H](O)[C@H](F)[C@@H]2F [BELZUTIFAN]
IC50 [5]: > 50 µM | inhibition [11]: Dose-dependent effect | Activity [38]: inactive
